Consider one compound from US5306732A, “Tumor necrosis factor antagonist” (Xenova Limited, priority 1989, dated 1994).

A short description of data set [1]: in vitro. The format is cell-based. The following applies: mouse, l929 cells. How it is done:
(§1) TNF causes lysis at low concentrations in sensitive cell lines. A cell line, known to be sensitive to TNF, was challenged with the cytokine in the presence of vinigrol and the reduction in cell mortality (as measured by cell staining) quantified in a manner similar to the method of Matthews, Immunology, 48, 321 (1982). A measurement of the cytotoxicity of vinigrol at the various concentrations was also carried out. L929 cells (4×10^4 /well) were incubated in RPMI 1640 medium containing 10ng/ml TNF, 0.05% lactalbumin hydrolysate and 1μg/ml actinomycin D plus the stated concentration of vinigrol overnight at […]. Cells were washed, fixed with methanol, stained with crystal violet and the cell density quantified by measuring absorbance at 590nm. The cytotoxicity of the samples was determined using the above method but excluding the TNF, in which experiments cell death would be due to the added vinigrol.

The test system of data set [2] is L929 cells. In words: cells. The format is cell-based. To be noted: Mus musculus, L929, read-out: Inhibition of TNF-induced cytotoxicity. As for the experimental part:
as §1

Data set [3] concerns TNF-receptor. In words: TNF-receptor binding assay: binding of [125 I]-TNF to intact HL 60 cells. The following applies: [125 I]-TNF 700pM, 2 hours at room temperature. How it is done: An in-vitro binding assay, based upon the measurement of binding of [^125 I]-TNF to intact cells, was used to measure the TNF/vinigrol interaction. The assay is similar to that of Imamura et al, J. Biol. Chem, 263, 10247-10253 (1988). More particularly, HL 60 cells (ATCC CCL 240) were grown in RPMI 1640 medium containing 10% foetal calf serum (FCS) and 1mM glutamine to a density of 1×10^6 /ml and harvested by centrifugation at 150g for 10 minutes. Cells were resuspended to a density of 2×10^7 /ml in RPMI 1640 containing 1% bovine serum albumin. [^125 I]-TNF was diluted to 2.1nM in the above buffer containing 0.6% sodium azide. Non-specific binding was estimated by measuring the binding in the presence of a 100 fold excess of unlabelled TNF. [^125 I]-TNF, final concentration 700pM, vinigrol at the stated concentration and cells at a density of 5×10^6 /ml were incubated in the above buffer for 2 hours at room temperature. The reaction was terminated by filtering onto a LKB filter mat (1205-401) followed by extensive washing with phosphate-buffered saline: The filter mat was counted for radioactivity to determine the quantity of bound [^125 I)-TNF.

For orientation: inhibition means how much of the control response was suppressed. In data set [1], `CC(C)C1CCC(C)C2CCC(C)C3(O)C1C=C(CO)C(O)C23` (stereo not drawn) [Vinigrol] returned a cytotoxicity at 3.1 µM of 30%, a cytotoxicity at 15.5 µM of 0% and a cytotoxicity at 77.5 µM of 7%. Moreover, in data set [2], the inhibition at 3.1 µM came out at 91%, the inhibition at 15.5 µM was found to be 100% and the inhibition at 77.5 µM was found to be 100%. In data set [3] (vinigrol 3.1 μM), the “Inhibition of [125 I]-TNF-binding” value was 8%. Also, the “Inhibition of [125 I]-TNF-binding” value in data set [3] (vinigrol 31 μM) is reported as 12%. The “Inhibition of [125 I]-TNF-binding” value in data set [3] (vinigrol 310 μM) is 100%.
